Source: US20100273875A1, “Composition for External Application to Skin” (KAO CORPORATION, priority 2007, published 2010)

Key:
[1] = test system: hairless mice irradiated with UV-B; test: Evaluation of wrinkle-preventing effect (visual evaluation of wrinkles), Example 1; type: in vivo; conditions: 100 μL/day after UV-B, five times a week over 12 weeks
Method: (§1) Six-week-old ICR/HR female mice prepared by mating HR/HR mice with HaM/ICR mice were used as wrinkle model animals (wrinkle-formed hairless mice). The mice were allowed to take feed and water freely and raised in an ultraviolet-free environment of a temperature of 23° C. and a humidity of 55%.
(§2) The hairless mice raised as above were divided into 7 groups each having 8 mice and were irradiated with UV-B. UV-B irradiation was performed according to a known general method described in Tsukahara et al. (Br. J. Dermatol., 2004, 151, p. 984-994) or the like. Specifically, the hairless mice raised as above were placed in cages and irradiated with UV-B using Toshiba SE lamps. Irradiation was performed at an irradiance level of 40 to 50 mJ/cm^2, which corresponds to 0.8 to 1 MED (minimal erythema dose) for general 6-week-old hairless mice, over 12 weeks five times a week.
(§3) Samples to be applied to the hairless mice were prepared as 1% Exemplified Compound (1)/90% ethanol (EtOH) solution, 3% Exemplified Compound (1)/90% EtOH solution, 1% Exemplified Compound (2)/90% EtOH solution, 1% Exemplified Compound (3)/90% EtOH solution, 0.1% Exemplified Compound (4)/90% EtOH solution, and 1% Exemplified Compound (5)/90% EtOH solution.
(§4) Immediately after the ultraviolet ray irradiation, 90% EtOH (control) and the samples prepared as above were applied to the hairless mice of the respective groups over 12 weeks with five times a week at a dose of 100 μL/day. The groups of the hairless mice applied with the samples include “90% EtOH control group” consisting of the mice applied with 90% EtOH, “1%-compound 1 group” consisting of the mice applied with 1% Exemplified Compound (1)/90% EtOH solution, “3%-compound 1 group” consisting of the mice applied with 3% Exemplified Compound (1)/90% EtOH solution, “1%-compound 2 group” consisting of the mice applied with 1% Exemplified Compound (2)/90% EtOH solution, “1%-compound 3 group” consisting of the mice applied with 1% Exemplified Compound (3)/90% EtOH solution, “0.1%-compound 4 group” consisting of the mice applied with 0.1% Exemplified Compound (4)/90% EtOH solution, and “1%-compound 5 group” consisting of the mice applied with 1% Exemplified Compound (5)/90% EtOH solution.
(§5) Five-grade evaluation for wrinkles was performed to classify wrinkles into grades 0 to 4 by reference to the method described in Bisselt et al. (Photochem. Photobiol., 1989, 50, p. 763-769) by a known method described in Tsukahara et al. (Br. J. Dermatol., 2004, 151, p. 984-994) or the like.
The score of the 90% EtOH control group was defined as 100, and wrinkle scores of the respective groups were evaluated based on the five-grade evaluation.

[2] = test system: hairless mice irradiated with UV-B; test: Replica image analysis (image analysis area ratio), Example 1; type: in vivo; conditions: 100 μL/day after UV-B, five times a week over 12 weeks
Method: as §1, §2, §3, §4
Replica collection and image analysis were performed as described below. A replica was collected from the skin of the back of each hairless mouse using a rubber-based silicon impression material (GC Corporation) by a known method described in Tsukahara K et al. (Br. J. Dermatol., 2004, 151, p. 984-994) or the like.
(§6) The collected replicas were cut out into pieces with a diameter of 1.8 cm, and the pieces were lined with the impression material to correct the pieces and subjected to an image analysis. The image analysis was performed using PIAS LA-555 (PIAS Corporation) by irradiating each piece with light from a direction of oblique 30 degrees to quantify shadows formed in an area of 10 mm×10 mm (image analysis area ratio (%)).
The image analysis area ratio of the 90% EtOH control group was defined as 100, and the image analysis area ratios (%) of the respective groups were evaluated based on the image analysis area ratios obtained by the quantification.

[3] = test system: hairless mice irradiated with UV-B; test: Measurement of skin elasticity (Ue, Cutometer), Example 1; type: in vivo; conditions: 100 μL/day after UV-B, five times a week over 12 weeks
Method: as §1, §2, §3, §4
(§7) Measurement of skin elasticity was performed by a known method described in Tsukahara K et al. (Br. J. Dermatol., 2004, 151, p. 984-994) using Cutometer SEM575 (C+K Corporation) to measure a displacement formed in 2 seconds in total with a 1-second suction of 100 mb, followed by a 1-second relaxation period. Measurement was performed five times for each mouse to determine Ue, which is a parameter of an instantaneous elasticity displacement. The Ue value of the 90% EtOH control group was defined as 100, and Ue values of the respective groups were determined.

[4] = test system: hairless mice irradiated with UV-B; test: Comprehensive evaluation of photoaging- and wrinkle-preventing effect, Example 1; type: in vivo
Method: as §1, §2, §3, §4, §5, §6, §7

[5] = test system: wrinkle-formed hairless mice; test: Evaluation of wrinkle-improving effect (visual evaluation of wrinkles), Example 2; type: in vivo; conditions: 1% in 90% EtOH, five times a week over 6 weeks, after 10 weeks of UV-B; versus 90% EtOH control group
Method: Wrinkle-formed hairless mice were prepared according to the description in the sections (1) and (2)(ii) of the above Example 1 by irradiating 6-week-old ICR/HR female mice, prepared by mating HR/HR with HaM/ICR, with UV-B over 10 weeks five times a week.
The hairless mice having wrinkles formed by irradiation with UV-B were visually evaluated with reference to the method described in Bisselt et al. (Photochem. Photobiol., 1989, 50, p. 763-769) by a known method described in Tsukahara et al. (Br. J. Dermatol., 2004, 151, p. 984-994) to divide the mice into two groups each having eight mice so that the average values of wrinkle scores (evaluated according to the description in the section 2)[…])) of the respective groups were almost the same.
A sample to be applied to the wrinkle-formed hairless mice was prepared as 1% compound (1)/90% EtOH solution.
The 90% EtOH (control) and the sample prepared as above were applied to the wrinkle-formed hairless mice of the respective groups over 6 weeks with five times a week at a dose of […]. The groups of the wrinkle-formed hairless mice applied with the samples include “90% EtOH control group” consisting of the mice applied with 90% EtOH, and “1%-compound 1 group” consisting of the mice applied with 1% Exemplified Compound (1)/90% EtOH solution. […]

[6] = David Malka et al., Journal of Hepathology, 1997; cited from earlier work

Compound | wrinkle formation inhibiting effect (wrinkle score, visual evaluation) ([1]; 1% in 90% EtOH) | wrinkle formation inhibiting effect (replica image analysis) ([2]; 1% in 90% EtOH) | effect of inhibiting the decrease in skin elasticity (Ue) ([3]; 1% in 90% EtOH) | photoaging-preventing and wrinkle-preventing effects (comprehensive evaluation) ([4]; 1% in 90% EtOH) | other results
CCCCCCCCCCCC(=O)OCCN(C)C [compound 1, 2-dimethylamino-ethyl dodecanoate] | decrease in this order | decrease in this order | decrease in this order | high | wrinkle formation inhibiting effect (wrinkle score, visual evaluation) ([1]; 3% in 90% EtOH): decrease in this order; wrinkle formation inhibiting effect (replica image analysis) ([2]; 3% in 90% EtOH): decrease in this order; effect of inhibiting the decrease in skin elasticity (Ue) ([3]; 3% in 90% EtOH): decrease in this order; photoaging-preventing and wrinkle-preventing effects (comprehensive evaluation) ([4]; 3% in 90% EtOH): high; wrinkle score (wrinkle-improving effect, visual evaluation) [5]: lower than that of the 90% EtOH control group
CCN(CCCc1ccccc1)CCCc1ccccc1 [alverine] |  |  |  |  | toxicity [6]: high toxicity
CCCCCCCCCCCC(=O)NCCN(C)C [compound 5, (2-dimethylaminoethyl)-amide dodecanoate] | maximum effect of inhibiting wrinkle formation | maximum effect of inhibiting wrinkle formation | maximum effect of inhibiting the decrease in skin elasticity | high | 
CCCCCCCCCCCCOC(=O)CN(C)C [compound 3, Dodecyl dimethylamino acetate] | decrease in this order | decrease in this order | decrease in this order | high | 
CCCCCCCCCCCCOCCN(C)C [compound 4, (2-dodecyloxy-ethyl)-dimethylamine] |  |  |  |  | wrinkle formation inhibiting effect (wrinkle score, visual evaluation) ([1]; 0.1% in 90% EtOH): decrease in this order; wrinkle formation inhibiting effect (replica image analysis) ([2]; 0.1% in 90% EtOH): decrease in this order; effect of inhibiting the decrease in skin elasticity (Ue) ([3]; 0.1% in 90% EtOH): decrease in this order; photoaging-preventing and wrinkle-preventing effects (comprehensive evaluation) ([4]; 0.1% in 90% EtOH): high
CCCCCCCCCCCCNC(=O)CN(C)C [compound 2, 2-Dimethylamino-N-dodecyl-acetamide] | decrease in this order | decrease in this order | decrease in this order | high | 
